Consider 16 compounds from patent US20240025919A1, “AZA-TETRACYCLIC OXAZEPINE COMPOUNDS AND USES THEREOF” (Genentech, Inc., priority 2022, published 2024).

Molecules are shown by their SMILES. pIC50: −log10 of the molar value. Where two headings read alike, the source gives them in different places.

Test [1] concerns H1975 (KRAS wild type human lung adenocarcinoma cell line). Kind of test: KRAS 3D-Cell Proliferation Assay, H1975 (CellTiter-Glo 3D, 7 days). The class given is cell-based. The following applies: H1975 3D culture, read-out: Prolif H1975 3D ATP IC50. How it is done:
(§1) Example 503: KRAS 3D-Cell Proliferation Assays. Cellular potencies of compounds are assessed by evaluating inhibition of proliferation in 3D cultures of homozygous mutant KRAS G12D human pancreatic cell lines (AsPC-1 and HPAC) as compared to a KRAS wild type human lung adenocarcinoma cell line (PC-9 and/or H1975). Cells are seeded into 384-well black round-bottom, ultra-low attachment assay plates in 50 uL cell growth medium (RPMI-1640 with 10% fetal bovine serum and 2 mM L-glutamine). After overnight incubation at 37° C. and 5% CO2, compounds solubilized in DMSO are added as dilution series to the wells in a total volume of 150 nL (0.3% DMSO final). The cells are incubated for 7 days at 37° C. and 5% CO2. Cell proliferation is quantitated by addition of 40 uL/well of CellTiter-GloO 3D (Promega), and the well contents are mixed 20× at high speed using liquid handling automation workstation (Bravo with 384-well head) and centrifuged at 1500 rpm for 2 minutes to eliminate bubbles. This reagent in combination with mechanical disruption releases the cellular ATP to promote activity in a luciferase-based enzyme/substrate chemiluminescent detection system. After a 30-minute incubation under ambient conditions with shaking and an additional 10 minutes without shaking, the luminescence is read on a plate reader (e.g. EnVision [PerkinElmer]). The results are normalized to percent inhibition based on the following control samples: DMSO (0% inhibition) and 1 uM staurosporine (100% inhibition). The normalized luminescence results are plotted against compound concentration, and the data are fit to a 4-parameter Hill equation to determine the IC50 values.

Test [2] addresses KRAS G12D (Homo sapiens (Human), UniProt P01116, G12D). Kind of test: KRAS G12D LoEnz Biochemical Assay, BODIPY-GDP Exchange TR-FRET (SOS1-mediated nucleotide exchange). The following applies: read-out: KRas (G12D) GDP HTRF IC50.
Test [3] deals with T1, KRAS WT (Homo sapiens (Human), UniProt P01116). Kind of test: KRAS WT Biochemical Assay, BODIPY-GDP Exchange TR-FRET (Example 502; 0.06 nM KRAS WT, 15 nM GDP, 300 nM SOS1, 120-minute incubation). The following applies: read-out: KRas HTRF IC50. The method in brief:
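IC50 from a 4-parameter Hill fit of percent inhibition, itself the TR-FRET 520/490 nm ratio scaled between DMSO and a fully inhibiting control. Reaction: 300 nM SOS1 and 300 nM BODIPY-GDP added to preformed 0.06 nM KRAS WT/15 nM GDP/Tb-streptavidin complex; 120 min incubation; pH 7.5 HEPES, MgCl2, DTT.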

For test [4], the target named is T1, KRAS WT. Kind of test: KRAS WT Biochemical Assay, BODIPY-GDP Exchange TR-FRET (Example 501; 3 nM KRAS WT, 3 nM SOS1, 60-minute incubation). The method in brief: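 SOS1-mediated exchange assay: 3 nM biotin-KRAS WT with terbium-streptavidin, started with 3 nM SOS1 and 300 nM BODIPY-GDP, HEPES pH 7.5 with MgCl2. TR-FRET (520/490 nm) read after 60 min; normalized to DMSO and full-inhibition control, IC50 from 4-parameter Hill fit.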

For test [5], the system named is HPAC (homozygous mutant KRAS G12D human pancreatic cell line). Kind of test: KRAS 3D-Cell Proliferation Assay, HPAC (CellTiter-Glo 3D, 7 days). The following applies: Homo sapiens, HPAC, 168 h, HPAC 3D culture, read-out: Prolif HPAC 3D ATP IC50. The test is classed as cell-based. Here is the method: as §1
Where [6] appears, read: read-out: KRas(wt) GDP HTRF IC50.

T1 sequence (P01116-2 other isoform, or with tags, fused parts or gaps): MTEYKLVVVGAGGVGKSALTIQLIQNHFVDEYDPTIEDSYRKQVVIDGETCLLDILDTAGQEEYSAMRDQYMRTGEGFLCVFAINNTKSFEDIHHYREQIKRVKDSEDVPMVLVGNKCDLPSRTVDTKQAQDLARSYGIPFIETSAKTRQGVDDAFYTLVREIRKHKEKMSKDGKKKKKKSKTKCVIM
KRAS G12D, sequence (P01116-2 other isoform, or with tags, fused parts or gaps G12D): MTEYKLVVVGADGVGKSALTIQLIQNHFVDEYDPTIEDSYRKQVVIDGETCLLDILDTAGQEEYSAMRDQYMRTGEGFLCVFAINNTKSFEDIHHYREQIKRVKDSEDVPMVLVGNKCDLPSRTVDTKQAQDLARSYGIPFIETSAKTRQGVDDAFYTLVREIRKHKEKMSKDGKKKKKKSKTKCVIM

As to `C[C@@H]1Oc2nc(-c3c(Cl)c(N)c(F)c(F)c3C(F)(F)F)c(F)c3nc(OC[C@@]45CCCN4C[C@H](F)C5)nc(c23)N2C[C@H]3CC[C@H](N3)[C@@H]12` (atropisomer, axis not shown; (aS)) [Compound 106, 2-Chloro-5,6-difluoro-3-((5S,5aS,6S,9R)-1-fluoro-12-(((2R,7aS)-2-fluorotetrahydro-1H-pyrrolizin-7a(5H)-yl)methoxy)-5-methyl-5a,6,7,8,9,10-hexahydro-5H-4-oxa-3,10a,11,13,14-pentaaza-6,9-methanonaphtho[1,8-ab]heptalen-2-yl)-4-(trifluoromethyl)aniline], the pIC50 in test [1] was 6.21.
`Cc1c(F)c(N)cc(-c2nc3c4c(nc(OC[C@H]5COC[C@H]6CCCN65)nc4c2F)N2C[C@H]4CC[C@H](N4)[C@H]2[C@H](C)O3)c1C(F)(F)F` (single isomer, unassigned) [121 (isomer 1)]: the negative-log IC50 (pIC50) in test [1] (Homo sapiens, NCI-H1975, 168 h) was 5.87; in test [2], 9.17; in test [3] it was 6.97.
With `Cc1c(F)c(N)cc(-c2nc3c4c(nc(OC[C@@]56CCCN5C[C@H](F)[C@@H]6F)nc4c2F)N2C[C@H]4CC[C@H](N4)[C@H]2[C@H](C)O3)c1C(F)(F)F` (single isomer, unassigned) [143 (isomer 3)], the pIC50 in test [1] (Homo sapiens, NCI-H1975, 168 h) is 5.96; in test [2], 9.37; in test [3], 7.33.
For `Cc1c(F)c(N)cc(-c2nc3c4c(nc(OC[C@H]5C[C@@H]6COCCN65)nc4c2F)N2C[C@H]4CC[C@H](N4)[C@H]2[C@H](C)O3)c1C(F)(F)F` (single isomer, unassigned) [159 (diast. 1)] the same measures were 5.37, 9.55 and 7.19.
`Cc1c(F)c(N)cc(-c2nc3c4c(nc(OC[C@@]56CCCN5C[C@H](F)C6)nc4c2F)N2C[C@H]4CC[C@H](N4)[C@H]2[C@H](C(F)F)O3)c1C(F)(F)F` (single isomer, unassigned) [238 (isomer 1)]: the negative-log IC50 (pIC50) was 5.42 in test [4] (read-out: KRas HTRF IC50), 5.11 in test [2] and 5.70 in test [5].
Consider `Cc1nc(N)cc(-c2nc3c4c(nc(OC[C@]56CCN5CC(F)(F)C6)nc4c2F)N2C[C@H]4CC[C@H](N4)[C@H]2[C@H](C(F)(F)F)O3)c1C(F)(F)F` (single isomer, unassigned) [252 (isomer 2)], for which the pIC50 is 4.70 in test [1] (Homo sapiens, NCI-H1975, 168 h); 6.80 in test [4] (read-out: KRas HTRF IC50); 8.23 in test [2].
Regarding `Cc1c(F)c(N)cc(-c2nc3c4c(nc(OC[C@@]56CCN(C)C5COC6)nc4c2F)N2C[C@H]4CC[C@H](N4)[C@H]2[C@H](C)O3)c1C(F)(F)F` (single isomer, unassigned) [258 (isomer 1)], the figures for the pIC50 in test [4] (read-out: KRas HTRF IC50), in test [2] and in test [5] were 7.83, 10.05 and 8.30, respectively.
On to `Cc1nc(N)cc(-c2nc3c4c(nc(OC[C@H]5N(C)C[C@@]56CC6(F)F)nc4c2F)N2C[C@H]4CC[C@H](N4)[C@H]2[C@H](C(F)(F)F)O3)c1C(F)(F)F` (single isomer, unassigned) [262 (isomer 2)], for which the pIC50 is 4.70 in test [1] (Homo sapiens, NCI-H1975, 168 h); 6.73 in test [4] (read-out: KRas HTRF IC50); 8.15 in test [2].
With `Cc1c(F)c(N)cc(-c2nc3c4c(nc(OC[C@@H]5C[C@@H](F)[C@H]6CCCN56)nc4c2F)N2C[C@H]4CC[C@H](N4)[C@H]2[C@H](C)O3)c1C(F)(F)F` (single isomer, unassigned) [Compound 160 (diast. 1)], the pIC50 was 6.00 in test [1] (Homo sapiens, NCI-H1975, 168 h); 9.85 in test [2]; 7.50 in test [3].
For `C#Cc1c(F)ccc2cc(O)cc(-c3nc4c5c(nc(OC[C@@]67CCCN6C[C@H](F)C7)nc5c3F)N3C[C@H]5CC[C@H](N5)[C@H]3[C@H](C)O4)c12` [Compound 7, 5-Ethynyl-6-fluoro-4-((5S,5aS,6S,9R)-1-fluoro-12-(((2R,7aS)-2-fluorotetrahydro-1H-pyrrolizin-7a(5H)-yl)methoxy)-5-methyl-5a,6,7,8,9,10-hexahydro-5H-4-oxa-3,10a,11,13,14-pentaaza-6,9-methanonaphtho[1,8-ab]heptalen-2-yl)naphthalen-2-ol], the pIC50 is 9.53 in test [4] (setting [6]), 10.23 in test [2] and 9.54 in test [3].
Regarding `CCc1cccc2cc(O)cc(-c3nc4c5c(nc(OC[C@@]67CCCN6C[C@H](F)C7)nc5c3F)N3C[C@H]5CC[C@H](N5)[C@H]3[C@H](C)O4)c12` [Compound 10, 5-ethyl-4-((5S,5aS,6S,9R)-1-fluoro-12-(((2R,7aS)-2-fluorotetrahydro-1H-pyrrolizin-7a(5H)-yl)methoxy)-5-methyl-5a,6,7,8,9,10-hexahydro-5H-4-oxa-3,10a,11,13,14-pentaaza-6,9-methanonaphtho[1,8-ab]heptalen-2-yl)naphthalen-2-ol], the pIC50 is 8.19 in test [4] (setting [6]), 10.09 in test [2] and 7.88 in test [3].
For `Cc1cc(-c2nc3c4c(nc(OC[C@@]56CCCN5C[C@H](F)C6)nc4c2F)N2C[C@H]4CC[C@H](N4)[C@H]2[C@H](C)O3)cc(N)c1F` [Compound 13, 2-fluoro-5-((5S,5aS,6S,9R)-1-fluoro-12-(((2R,7aS)-2-fluorotetrahydro-1H-pyrrolizin-7a(5H)-yl)methoxy)-5-methyl-5a,6,7,8,9,10-hexahydro-5H-4-oxa-3,10a,11,13,14-pentaaza-6,9-methanonaphtho[1,8-ab]heptalen-2-yl)-3-methylaniline] the same measures were 5.81, 7.51 and 5.75.
For `C[C@@H]1Oc2nc(-c3cc(N)cc(F)c3C(F)(F)F)c(F)c3nc(OC[C@@]45CCCN4C[C@H](F)C5)nc(c23)N2C[C@H]3CC[C@H](N3)[C@@H]12` [Compound 17, 3-fluoro-5-((5S,5aS,6S,9R)-1-fluoro-12-(((2R,7aS)-2-fluorotetrahydro-1H-pyrrolizin-7a(5H)-yl)methoxy)-5-methyl-5a,6,7,8,9,10-hexahydro-5H-4-oxa-3,10a,11,13,14-pentaaza-6,9-methanonaphtho[1,8-ab]heptalen-2-yl)-4-(trifluoromethyl)aniline] the same measures were 9.25, 9.88 and 8.98.
Turning to `Cc1c(F)c(N)cc(-c2nc3c4c(nc(OC[C@@H]5CC[C@H]6COCCN65)nc4c2F)N2C[C@H]4CC[C@H](N4)[C@H]2[C@H](C)O3)c1C(F)(F)F` [Compound 31, 2-fluoro-5-((5S,5aS,6S,9R)-1-fluoro-12-(((6S,8aS)-hexahydro-1H-pyrrolo[2,1-c][1,4]oxazin-6-yl)methoxy)-5-methyl-5a,6,7,8,9,10-hexahydro-5H-4-oxa-3,10a,11,13,14-pentaaza-6,9-methanonaphtho[1,8-ab]heptalen-2-yl)-3-methyl-4-(trifluoromethyl)aniline], the pIC50 in test [4] (setting [6]) is 8.81; in test [2] it was 10.06; in test [3] it was 8.15.
With `Cc1cc(N)c(F)c(-c2nc3c4c(nc(OC[C@@]56CCCN5C[C@H](F)C6)nc4c2F)N2C[C@H]4CC[C@H](N4)[C@H]2[C@H](C)O3)c1C(F)(F)F` [Compound 34, 2-Fluoro-3-((5S,5aS,6S,9R)-1-fluoro-12-(((2R,7aS)-2-fluorotetrahydro-1H-pyrrolizin-7a(5H)-yl)methoxy)-5-methyl-5a,6,7,8,9,10-hexahydro-5H-4-oxa-3,10a,11,13,14-pentaaza-6,9-methanonaphtho[1,8-ab]heptalen-2-yl)-5-methyl-4-(trifluoromethyl)aniline], the values for the pIC50 in test [4] (setting [6]), in test [2] and in test [3] were 8.67, 9.63 and 8.37, respectively.
For `C=C1CN2CCC[C@@]2(COc2nc3c4c(nc(-c5cc(O)cc6cccc(CC)c56)c(F)c4n2)O[C@@H](C)[C@@H]2[C@@H]4CC[C@H](CN32)N4)C1` [Compound 80] the same measures were 8.47, 10.17 and 8.46.
